Here are results for one compound from patent US20150284362A1, “CARBAZOLE-CONTAINING AMIDES, CARBAMATES, AND UREAS AS CRYPTOCHROME MODULATORS” (ReSet Therapeutics, Inc., priority 2014, published 2015).

For assay [1], the target named is T1, FAD-binding domain of human CRY1 protein (hCRY1) (Homo sapiens, UniProt Q16526).
T1 construct: Myc-DDK (Myc + FLAG) (C); made in house
T1 sequence (Q16526 1-494): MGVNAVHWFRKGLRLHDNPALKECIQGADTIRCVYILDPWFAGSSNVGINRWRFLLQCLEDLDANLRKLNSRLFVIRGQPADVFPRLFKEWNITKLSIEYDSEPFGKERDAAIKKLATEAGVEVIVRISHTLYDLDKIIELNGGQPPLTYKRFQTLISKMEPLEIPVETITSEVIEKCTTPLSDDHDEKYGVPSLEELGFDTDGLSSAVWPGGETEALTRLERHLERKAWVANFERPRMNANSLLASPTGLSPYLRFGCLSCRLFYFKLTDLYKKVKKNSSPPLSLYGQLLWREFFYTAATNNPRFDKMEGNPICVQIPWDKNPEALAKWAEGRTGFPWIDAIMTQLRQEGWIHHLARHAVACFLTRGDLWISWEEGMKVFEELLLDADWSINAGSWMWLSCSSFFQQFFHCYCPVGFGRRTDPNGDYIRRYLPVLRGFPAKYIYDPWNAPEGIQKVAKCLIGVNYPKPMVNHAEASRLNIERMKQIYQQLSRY
As to the kind of experiment: Thermal shift binding assay (differential scanning fluorimetry). Conditions: purified FADBD 0.5 μg per well, 5% DMSO. As to the method: Binding of compounds to the isolated FAD-binding domain of human CRY1 protein (hCRY1) was determined using a differential scanning fluorimetry (‘thermal shift’) assay (Pantoliano et al. (2001) J Biomol Screening 6, 429; Niesen et al. (2007) Nature Protocols 2, 2212). The FAD-binding domain of hCRY1 (amino acid residues 1-494) with a C-terminal Myc-DDK tag (FADBD), was produced by transient transfection of HEK293T cells (Catalog # CRL-3216, American Type Culture Collection) and purified by anti-FLAG affinity chromatography (Catalog # A2220, Sigma-Aldrich). FADBD (0.5 μg per well) was incubated with dilutions of compounds in DMSO (5% DMSO final concentration in reaction) in 17.5 μl Tris-buffered saline (TBS) for 10 minutes on ice, then 2.5 μl of 8× Sypro-Orange Dye (Life Technologies) was added to each well. Triplicate wells were assayed for each compound concentration. The melting temperatures were measured in an ABI7500 quantitative PCR instrument using the melt curve mode with a thermal profile of 2 minutes at 25° C., followed by a ramp rate of 1° C./minute up to 99° C. The melting temperature for each well was determined from the first derivative of the melt curve. The change in melting temperature (ΔTm) was obtained by subtraction of the melting temperature of the FADBD in 5% DMSO alone.

The test system of assay [2] is core clock gene mRNAs in liver. As to the kind of experiment: Four day study, liver core clock gene mRNA, ICR mice. To be noted: 50 mg/kg PO BID 4 days, ZT6. The format is in vivo, mouse. As to the method:
Male ICR mice (weighing 30-35 g), obtained from Charles River Laboratories (Hollister, Calif.), were used for the experiment following at least 3 days of acclimation. Mice were dosed with vehicle (WFI or 10% Kolliphor) or compound (50 mg/kg, dose volume 5 mL/kg, PO) for 4 days BID (twice a day), beginning in the afternoon of the first day. The last dose of compound or vehicle was administered on the morning of harvest. On the day of harvest (6 hours following the final dose), mice were euthanized by CO2 asphyxiation and 50 mg of liver tissue was excised and placed in a tube containing 500 μl of RNA later.
E.Z.N.A.® HP Total RNA Isolation Kits (R6812-01 and the protocol described in the Manual, Revised 2010) were utilized to prepare and isolate RNA from the liver samples. To prepare the RNA samples, 10-30 mg of sample was removed from RNA-Later and placed in a 1.5 ml microfuge tube. […] The cleared supernatant was transferred by pipetting to a DNA Clearance Column Pre-inserted in a 2 mL Collection Tube. The assembled column was centrifuged at 13,000×g for 1 minute, and the flow-through was saved. An equal volume (700 μl) of 70% ethanol was added to the lysate and mixed. The sample was then applied to a HiBind RNA spin column placed into a 2 ml collection tube, which was centrifuged at 10,000×g for 60 seconds at room temperature. RNA Wash Buffer I (250 μl) was added by pipetting directly onto a new HiBind RNA column inserted in a 2 ml collection tube. The assembled column was centrifuged at 10,000×g for 60 seconds. The RNA column was placed into a new 2 ml collection tube. […] The column with bound RNA was incubated at room temperature (25-30° C.) for 15 minutes. RNA Wash Buffer I (500 μl) was added to the column and placed on a bench top for 2 minutes. After centrifuging at 10,000×g for 60 seconds, discarding the flow-through, 500 μl of RNA Wash Buffer II was added and centrifuged at 10,000×g for 60 seconds. Another 500 μl of RNA Wash Buffer II was added and the column assembly was centrifuged at 10,000×g for 60 seconds. The column was centrifuged for 2 minutes at maximum speed to completely dry the HiBind matrix. The column was placed in a clean 1.5 ml microcentrifuge tube and 40-70 μl of molecular biology grade water is added. After sitting for 1 minute, the column was centrifuged for 2 minutes at maximum speed to elute the RNA. The isolated RNA was collected into the collection tube.
RediPlate 96 RiboGreen RNA Quantification Kit (Invitrogen) RediPlate standard curve was prepared by transferring 20 μl reconstituted RNA standard to a RediPlate well reconstituted in 180 μl RediPlate TE buffer. For liver RNAs prepared from 30-100 mg of tissue using a kit similar to the Omega Bio-Tek HP Total RNA Kit and eluted in RNAse-free water in a volume of 50 μl (microliters), 5 μl of the total RNA is diluted in 195 μl of RediPlate TE buffer (1:40 dilution of RNA), mix. […] Alternatively, one can use the FlexStation 3 with Ex 488 nm and Em 525 nm and a Cutoff of 515 nm.

With `O=C1NCCN1CC(O)Cn1c2ccc(F)cc2c2cc(F)ccc21` (stereo not drawn) [Compound 72, 1-(3-(3,6-difluoro-9H-carbazol-9-yl)-2-hydroxypropyl)imidazolidin-2-one], the “change in melting temperature (ΔTm) of hCRY1 FADBD” value in assay [1] is on record as “dose-dependent increase in ΔTm”. In addition, in assay [2], the “Cry2 transcripts in liver” value is “decrease” and the “liver Per2 expression” value is recorded as “suppression”.
